The results in this text go back to patent US10961238B2, “Modulators of hedgehog (Hh) signaling pathway” (E-THERAPEUTICS PLC, priority 2016, dated 2021).

For the experiment, the system named is C3H10T1/2 cells. Description: C3H assay: differentiation of C3H10T1/2 cells by mSHH, measurement of alkaline phosphatase. To be noted: Mus musculus, C3H 10T1/2; C3H10T1/2 cells stimulated with mSHH for 72 hours; alkaline phosphatase activity; read-out: IC50 Ranges. Type of experiment: cell-based, mouse.

In the case of `Cc1noc(C)c1COC(=O)N1CC(S(=O)(=O)N2CCC(c3c[nH]c4ncccc34)CC2)C1` [Compound 62, (3,5-Dimethylisoxazol-4-yl)methyl 3-[[4-(1H-pyrrolo[2,3-b]pyridin-3-yl)-1-piperidyl]sulfonyl]azetidine-1-carboxylate], the IC50 was 10 to 100 nM.

`Cc1noc(C)c1CC(=O)N1CC(S(=O)(=O)N2CCC(c3c[nH]c4ncccc34)CC2)C1` [Compound 63, 2-(3,5-dimethyl-1,2-oxazol-4-yl)-1-[3-[4-(1H-pyrrolo[2,3-b]pyridin-3-yl)piperidin-1-yl]sulfonylaze-tidin-1-yl]ethanone]: the IC50 was 10 to 100 nM.

As for `CC1(C)CCCC(C)(C)N1C(=O)N1CC(S(=O)(=O)N2CCC(c3c[nH]c4ncccc34)CC2)C1` [Compound 64, [3-[4-(1H-pyrrolo[2,3-b]pyridin-3-yl)piperidin-1-yl]sulfonylaze-tidin-1-yl]-(2,2,6,6-tetramethylpiperidin-1-yl)methanone], the IC50 lay within 10 to 100 nM.

Consider `COCCOC(=O)N1CC(S(=O)(=O)N2CCC(c3c[nH]c4ncccc34)CC2)C1` [Compound 65, 2-methoxyethyl 3-[4-(1H-pyrrolo[2,3-b]pyridin-3-yl)piperidin-1-yl]sulfonylaze-tidine-1-carboxylate], for which the IC50 fell in the range of 100 to 1000 nM.

For `CC(C)(C)COC(=O)N1CC(S(=O)(=O)N2CCC(c3c[nH]c4ncccc34)CC2)C1` [Compound 66, 2,2-dimethylpropyl 3-[4-(1H-pyrrolo[2,3-b]pyridin-3-yl)piperidin-1-yl]sulfonylaze-tidine-1-carboxylate], the IC50 was 10 to 100 nM.

Turning to `O=S(=O)(C1CN(Cc2cccs2)C1)N1CCC(c2c[nH]c3ncccc23)CC1` [Compound 68, 3-[1-[1-(thiophen-2-ylmethyl)azetidin-3-yl]sulfonylpiper-idin-4-yl]-1H-pyrrolo[2,3-b]pyridine], the IC50 is 100 to 1000 nM.

With `O=S(=O)(C1CN(Cc2ccc[nH]2)C1)N1CCC(c2c[nH]c3ncccc23)CC1` [Compound 69, 3-[1-[1-(1H-pyrrol-2-ylmethyl)azetidin-3-yl]sulfonylpiper-idin-4-yl]-1H-pyrrolo[2,3-b]pyridine], the IC50 lay in the range of 100 to 1000 nM.

Take `O=S(=O)(C1CN(Cc2ccco2)C1)N1CCC(c2c[nH]c3ncccc23)CC1` [Compound 70, 3-[1-[1-(furan-2-ylmethyl)azetidin-3-yl]sulfonylpiper-idin-4-yl]-1H-pyrrolo[2,3-b]pyridine]: the IC50 was in the range of 100 to 1000 nM.

On to `O=S(=O)(C1CN(c2ccncc2)C1)N1CCC(c2c[nH]c3ncccc23)CC1` [Compound 71, 3-[1-(1-pyridin-4-ylazetidin-3-yl)-sulfonylpiper-idin-4-yl]-1H-pyrrolo[2,3-b]pyridine], for which the IC50 fell in the range of 1000 to 10000 nM.

For the molecule `O=C(c1ccncc1)N1CC(S(=O)(=O)N2CCC(c3c[nH]c4ncccc34)CC2)C1` [Compound 72, pyridin-4-yl-[3-[4-(1H-pyrrolo[2,3-b]pyridin-3-yl)piperidin-1-yl]sulfonylaze-tidin-1-yl]methanone], the IC50 lay within 1000 to 10000 nM.

`CC(C)(C)C(=O)N1CC(S(=O)(=O)N2CCC(c3c[nH]c4ncccc34)CC2)C1` [Compound 73, 2,2-dimethyl-1-[3-[4-(1H-pyrrolo[2,3-b]pyridin-3-yl)piperidin-1-yl]sulfonylaze-tidin-1-yl]propan-1-one]: the IC50 lay within 100 to 1000 nM.

As for `CC(C)(C)c1ccc(C(=O)N2CC(S(=O)(=O)N3CCC(c4c[nH]c5ncccc45)CC3)C2)cc1` [Compound 74, (4-tert-butylphenyl)-[3-[4-(1H-pyrrolo[2,3-b]pyridin-3-yl)piperidin-1-yl]sulfonylaze-tidin-1-yl]methanone], the IC50 lay within 1000 to 10000 nM.

Take `O=C(OCc1ccccc1)N1CC(S(=O)(=O)N2CCC(c3c[nH]c4ncccc34)CC2)C1` [Compound 76, benzyl 3-[4-(1H-pyrrolo[2,3-b]pyridin-3-yl)piperidin-1-yl]sulfonylaze-tidine-1-carboxylate]: the IC50 was in the range of 10 to 100 nM.

As for `O=C(Oc1ccc(F)cc1)N1CC(S(=O)(=O)N2CCC(c3c[nH]c4ncccc34)CC2)C1` [Compound 77, (4-fluorophenyl) 3-[4-(1H-pyrrolo[2,3-b]pyridin-3-yl)piperidin-1-yl]sulfonylaze-tidine-1-carboxylate], the IC50 was 10 to 100 nM.

As for `O=C(NCc1cocn1)N1CC(S(=O)(=O)N2CCC(c3c[nH]c4ncccc34)CC2)C1` [Compound 78, N-(1,3-oxazol-4-ylmethyl)-3-[4-(1H-pyrrolo[2,3-b]pyridin-3-yl)piperidin-1-yl]sulfonylaze-tidine-1-carboxamide], the IC50 fell in the range of 100 to 1000 nM.

`O=C(N1CC(S(=O)(=O)N2CCC(c3c[nH]c4ncccc34)CC2)C1)n1ccnc1` [Compound 79, imidazol-1-yl-[3-[4-(1H-pyrrolo[2,3-b]pyridin-3-yl)piperidin-1-yl]sulfonylaze-tidin-1-yl]methanone]: the IC50 was in the range of 1000 to 10000 nM.

As for `O=C(NCc1cncs1)N1CC(S(=O)(=O)N2CCC(c3c[nH]c4ncccc34)CC2)C1` [Compound 80, 3-[4-(1H-pyrrolo[2,3-b]pyridin-3-yl)piperidin-1-yl]sulfonyl-N-(1,3-thiazol-5-ylmethyl)azetidine-1-carboxamide], the IC50 lay within 100 to 1000 nM.

For `Cn1ccc(CNC(=O)N2CC(S(=O)(=O)N3CCC(c4c[nH]c5ncccc45)CC3)C2)n1` [Compound 81, N-[(1-Methylpyrazol-3-yl)methyl]-3-[[4-(1H-pyrrolo[2,3-b]pyridin-3-yl)-1-piperidyl]sulfonyl]azetidine-1-carboxamide], the IC50 is 100 to 1000 nM.

As to `CCN(CC)C(=O)N1CC(S(=O)(=O)N2CCC(c3c[nH]c4ncccc34)CC2)C1` [Compound 82, N,N-diethyl-3-[4-(1H-pyrrolo[2,3-b]pyridin-3-yl)piperidin-1-yl]sulfonylaze-tidine-1-carboxamide], the concentration for half-maximal inhibition (IC50) was 100 to 1000 nM.

`O=C(OCc1ccco1)N1CC(S(=O)(=O)N2CCC(c3c[nH]c4ncccc34)CC2)C1` [Compound 83, furan-2-ylmethyl 3-[4-(1H-pyrrolo[2,3-b]pyridin-3-yl)piperidin-1-yl]sulfonylaze-tidine-1-carboxylate]: the IC50 is 1000 to 10000 nM.

Take `O=C(NCc1cccs1)N1CC(S(=O)(=O)N2CCC(c3c[nH]c4ncccc34)CC2)C1` [Compound 85, 3-[4-(1H-pyrrolo[2,3-b]pyridin-3-yl)piperidin-1-yl]sulfonyl-N-(thiophen-2-ylmethyl)azetidine-1-carboxamide]: the IC50 was in the range of 10 to 100 nM.

Regarding `O=C(N1CCCCC1)N1CC(S(=O)(=O)N2CCC(c3c[nH]c4ncccc34)CC2)C1` [Compound 86, piperidin-l-yl-[3-[4-(1H-pyrrolo[2,3-b]pyridin-3-yl)piperidin-1-yl]sulfonylaze-tidin-1-yl]methanone], the IC50 was in the range of 100 to 1000 nM.

For the molecule `O=C(N1CCCC1)N1CC(S(=O)(=O)N2CCC(c3c[nH]c4ncccc34)CC2)C1` [Compound 87, pyrrolidin-1-yl-[3-[4-(1H-pyrrolo[2,3-b]pyridin-3-yl)piperidin-1-yl]sulfonylaze-tidin-1-yl]methanone], the IC50 is 100 to 1000 nM.

For the molecule `CC(C)N1CC(S(=O)(=O)N2CCC(c3c[nH]c4ncccc34)CC2)C1` [Compound 89, 3-[1-(1-propan-2-ylazetidin-3-yl)sulfonylpiper-idin-4-yl]-1H-pyrrolo[2,3-b]pyridine], the IC50 was in the range of 1000 to 10000 nM.

What is called IC50 is the concentration that inhibits the measured activity by half.
